Tested on: D2 receptor
Test: Binding to cloned D2 receptors ([125I]-iodosulpride displacement)
Details: reference aminotetralines
Method: Pharmacological study STUDIES OF THE BINDING OF THE COMPOUNDS OF THE INVENTION TO D2 AND D3 RECEPTORS
The results are expressed in the form of pKi (pKi =-logKi).
The Ki value is derived from the formula Ki =IC50 /(1+L/KD), where L is the concentration of [^125 I]-iodosulpride used in the experiment and Kd its dissociation constant.
The IC50, which represents the concentration that gives a 50% inhibition of the binding of the radioligand, is calculated by non-linear regression (Simplex method).

Row | Structure (SMILES) | selectivity (D3 versus D2)
1 | CCCN[C@@H]1CCc2c(OC)cccc2[C@@H]1C [(+) AJ 76] | 2
2 | CCCN(CCC)[C@@H]1CCc2c(OC)cccc2[C@@H]1C [(+) UH 232] | 5

From patent publication US5726208A, “Heterocyclic tertiary amines” (Adir et Compagnie, priority 1995, dated 1998)
